# Assay results published in patent US5994368A, “Pyridopyrimidones, quinolines and fused N-heterocycles as bradykinin antagonists” (Fujisawa Pharmaceutical Co., Ltd., priority 1994, dated 1999).
# Structures can show the parent of a compound that is named as a salt.
# Biological target: T1, Bradykinin receptor (Cavia porcellus, UniProt O70526)
# T1 construct: The ileum was removed and homogenized in buffer; from tissue; host or cells: guinea pig ileum, crude membrane suspension
# T1 sequence (O70526 1-372): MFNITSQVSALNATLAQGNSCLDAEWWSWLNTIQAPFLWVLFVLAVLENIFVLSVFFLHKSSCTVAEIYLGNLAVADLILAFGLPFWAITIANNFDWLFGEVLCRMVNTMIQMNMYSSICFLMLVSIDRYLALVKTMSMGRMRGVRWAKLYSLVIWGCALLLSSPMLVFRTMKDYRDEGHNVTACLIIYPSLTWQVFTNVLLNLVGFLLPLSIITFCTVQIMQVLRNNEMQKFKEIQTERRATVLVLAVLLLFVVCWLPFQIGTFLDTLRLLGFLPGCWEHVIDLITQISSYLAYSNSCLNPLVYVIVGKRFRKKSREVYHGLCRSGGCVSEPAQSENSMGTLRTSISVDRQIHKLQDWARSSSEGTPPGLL
# Assay: 3H-Bradykinin receptor binding (crude ileum membrane)
# Set-up: species or system guinea pig (male Hartly strain)
# Conditions: concentration: 1 × 10^-6 M; guinea pig ileum membrane, room temperature, 60 minutes
# Experimental: ^3 H-Bradykinin receptor binding
# (a) Crude ileum membrane preparation
# Male Hartly strain guinea pigs were sacrificed by decapitation. The ileum was removed and homogenized in buffer (50 mM trimethylaminoethanesulfonic acid (TES), 1 mM 1,10-phenanthroline pH 6.8). The homogenate was centrifuged (1000× g, 20 minutes) to remove tissue clumps and the supernatant was centrifuges (100,000× g, 60 minutes) to yield a pellet. The pellet was resuspended in buffer (50 mM TES, 1 mM 1,10-phenanthroline, 140 mg/l bacitracin, 1 mM dithiothreiol, 0.1% bovine serum albumin pH 6.8) and homogenized with a glass-teflon homogenizer to yield suspension which was referred to as crude membrane suspension. The obtained membrane suspension was stored at -80° C. until use.
# (b) ^3 H-Bradykinin binding to the membrane
# The frozen crude membrane suspension was thawed. In binding assays, ^3 H-Bradykinin ([…]) and drug (1×10^-6 M) were incubated with 50 μl of the membrane suspension at room temperature for 60 minutes in a final volume of 250 μl. Separation of receptor-bound from free ^3 H-Bradykinin is achieved by immediate filtration under vacuum and washed three times with 5 ml of ice-cold buffer (50 mM Tris-HCl pH 7.5). Non-specific binding was defined as binding in the presence of 0.1 μM Bradykinin. The radioactivity retained on rinsed filters was determined by a liquid-scintillation counter.
row,Compound,inhibition at 1 µM
1,"Cc1ccc2cccc(OCc3c(Cl)ccc(N(C)C(=O)CNC(=O)CNc4nc5ccccc5s4)c3Cl)c2n1 [2-(14), 8-[3-[N-[2-(2-Benzothiazolylamino)acetylglycyl]-N-methylamino]-2,6-dichlorobenzyloxy]-2-methylquinoline]",96%
2,CNC(=O)c1ccc(/C=C/C(=O)NCC(=O)N(C)c2ccc(Cl)c(COc3cccc4c(NCCOC)cc(C)nc34)c2Cl)cc1 [10-(9) dihydrochloride],99%
3,CNC(=O)c1nc2ccc(C(=O)NCC(=O)N(C)c3ccc(Cl)c(COc4cccc5ccc(C)nc45)c3Cl)cc2cc1C [25-(2) dihydrochloride],96%
4,"COC(=O)c1cncc(NC(=O)NCC(=O)N(C)c2ccc(Cl)c(COc3cccc4ccc(C)nc34)c2Cl)c1 [34-(3), 8-[2,6-Dichloro-3-[N-[N'-(5-methoxycarbonylpyridin-3-yl)ureidoacetyl]-N-methylamino]benzyloxy]-2-methylquinoline]",100%
5,CNC(=O)c1ccc(/C=C/C(=O)NCC(=O)N(C)c2ccc(Cl)c(COc3cccc4ccc(C)nc34)c2)cc1 [37-(5) hydrochloride],100%
6,"CNC(=O)c1ccc(/C=C/C(=O)NCC(=O)N(C)c2ccc(C)c(COc3cccn4c(=O)cc(C)nc34)c2C)cc1 [90-(2), 9-[2,6-Dimethyl-3-[N-methyl-N-[4(methylcarbomoyl)cinnamoylglycyl]amino]benzyloxy]-2-methyl-4H-pyrido-[1,2-a]pyrimidin-4-one]",98%
7,"CNC(=O)c1ccc(/C=C/C(=O)NCC(=O)N(C)c2ccc(Cl)c(CNc3cccc4ccc(C)nc34)c2Cl)cc1 [Example 73-(4), 8-[2,6-dichloro-3-[N-methyl-N-[4-(methylcarbamoyl)cinnamoylglycyl]amino]benzylamino]-2-methylquinoline dihydrochloride]",95%
